Laboratory results as given in US20240032530A1, “BLOOD SAMPLER CONTAINING ANTI-PLATELET AGENT AND WATER-SOLUBLE MATRIX MATERIAL” (Radiometer Medical ApS, priority 2020, published 2024).

Each compound was assayed on platelets (PLT) in whole blood (assay: Whole blood stability: PLT concentration on Sysmex XN-9000 hematology analyzer). Settings: FIG. 8; formulated with PVP (Mw 10′000)/Tris matrix, 1 μM in whole blood, with Hep brick or LiHep tube, analyzed within 6 hours, three donors.
Format: cell-based, healthy volunteers
Protocol: For storage stability and whole blood stabilization testing, the tubes were sprayed with 10 μL each of the mixture (D) using an ExactaCoat from Sono-Tek for ultrasonic spraying. And tubes were evacuated after spraying in order to allow filling of 3 mL whole blood during blood drawing via venipuncture.
Tubes with sprayed anti-platelet agents Iloprost, Beraprost sodium and Treprostinil each formulated with a PVP (Mw 10′000)/Tris matrix were prepared by ultrasonic spraying as described above. Spraying was done into either 1) tubes with no additive and after spraying, a heparinized filter paper brick (Hep brick) was added to the tube; or 2) spraying was conducted into commercial Lithium Heparin tubes (LiHep). The formulations were prepared to achieve a final anti-platelet agent concentration of 1 μM in whole blood. After preparation, tubes were evacuated and lids closed in order to allow drawing of correct whole blood volume during venipuncture. Blood from three different healthy volunteers were drawn into prepared blood collection tubes and reference standard EDTA and Lithium Heparin (LiHep) tubes. Whole blood samples were analyzed with a Sysmex XN-9000 hematology analyzer within 6 hours after blood sample drawing.
The Y-axis is the normalized PLT concentration relative to the EDTA sample.
`CC#CCC(C)[C@H](O)/C=C/[C@@H]1[C@H]2C/C(=C/CCCC(=O)O)C[C@H]2C[C@H]1O` (stereo partly drawn) [Iloprost, iloprost] was tested, and the “anti-platelet activity (normalized PLT concentration relative to the EDTA sample)” value was “as high as that of EDTA”. For `CC#CCC(C)[C@H](O)/C=C/[C@@H]1[C@H]2c3cccc(CCCC(=O)O)c3O[C@H]2C[C@H]1O` (mixture of isomers) [Beraprost, Beraprost sodium], the “anti-platelet activity (normalized PLT concentration relative to the EDTA sample)” value was “as high as that of EDTA”. With `CCCCC[C@H](O)CC[C@@H]1[C@H]2Cc3cccc(OCC(=O)O)c3C[C@H]2C[C@H]1O` [Treprostinil] the “anti-platelet activity (normalized PLT concentration relative to the EDTA sample)” value was “as high as that of EDTA”.
